For one molecule, Activity results are on record in ChEMBL document CHEMBL1121720, “Future directions in dopaminergic nervous system and dopaminergic agonists” (J Med Chem, 1981).

The experiment addresses T1, Renin (Rattus norvegicus) (UniProt P08424).
T1 sequence (whole entry): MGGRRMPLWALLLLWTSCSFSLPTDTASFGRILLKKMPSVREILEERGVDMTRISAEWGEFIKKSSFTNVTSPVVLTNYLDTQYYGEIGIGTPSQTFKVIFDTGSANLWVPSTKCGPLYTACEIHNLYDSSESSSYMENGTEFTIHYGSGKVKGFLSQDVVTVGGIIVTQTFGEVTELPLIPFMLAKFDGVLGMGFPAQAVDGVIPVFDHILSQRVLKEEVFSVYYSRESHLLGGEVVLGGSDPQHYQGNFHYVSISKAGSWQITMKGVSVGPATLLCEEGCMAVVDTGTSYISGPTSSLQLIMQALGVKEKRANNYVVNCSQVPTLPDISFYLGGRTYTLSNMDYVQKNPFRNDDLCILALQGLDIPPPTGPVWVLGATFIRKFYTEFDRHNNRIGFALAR
Briefly: Compound was evaluated for its ability to reduce plasma renin activity; Ranges is 20-40. The arrangement: scale not given: the % may be the effect or the level left. It is filed as functional, cell-free.

The molecule `CC(C)C[C@H]1C(=O)N2CCCC2[C@]2(C)O[C@](NC(=O)C3C=C4c5cccc6[nH]c(Br)c(c56)C[C@H]4N(C)C3)(C(C)C)C(=O)N12` (stereo partly specified) gave an Activity of 20%.
